Assay results: patent US20240115557A1, “INHIBITORS OF RNA-GUIDED NUCLEASES AND USES THEREOF” (The Brigham and Women's Hospital, Inc., priority 2022, published 2024)

What was measured:
SpCas9 [1] = target: T1, SpCas9 (Streptococcus pyogenes serotype M1, UniProt Q99ZW2); test: Strand displacement assay (SDA) / cumulative activity assay (CAA), SpCas9 primary screen; assay type: biochemical; details: Primary Screen (150 min); for Normalized Z score 1: replicate 1; for Normalized Z score 2: replicate 2
Protocol: Screening of inhibitors was via a high throughput pipeline, as depicted in FIG. 29. The first screening is via a strand displacement assay (SDA) for detecting nuclease activity (FIG. 27A, 28A). The Cpf1/Cas12 protein/DNA complex has a different structure from Cas9 and requires optimization of the potential fluorophore attachment sites (Yamano, T et al., Cell, 2016). (FIG. 28A). Next screened compounds are evaluated in an eGFP cell assay, and for eGFP dose. Those compounds are further narrowed via a HiBiT assay and finally evaluated in the surveyor assay. SAR evaluations are performed to arrive at lead compounds for further evaluations and variations. General methodology for the assays is as described in at [0253]-[0301] of U.S. Patent Application 62/831,143 filed Apr. 8, 2019, incorporated herein by reference.
The 3′ end of the displacing single-stranded DNA was labeled with a quencher. Following nuclease cleavage of the substrate, the 3′-labeled quenching DNA strand (present in excess) could outcompete the weakly held 3′ strand to anneal to the 5′ strand. The resulting FRET fluorescence quenching provides an optical readout for nuclease activity (FIG. 62A).
Typically, SpCas9: gRNA (1:1.2 ratio) RNP was pre-formed at 1 μM in Cas9 assay buffer (20 mM Tris-HCl, pH=7.5, 100 mM KCl, 5 mM MgCl2) for 5 min at 4° C. before diluting to 10 nM in Cas9 assay buffer (2× final concentration). 25 μL of the Cas9 2× stock was manually dispensed to a black 384-well plate (Corning 3575) using electronic pipette. […] Following this, pre-annealed Alexa-Fluor 647 labeled substrate and quencher were also diluted to 1 nM and 5 nM in Cas9 assay buffer, respectively (2× stock solution). Next, 25 μL of the substrate/quencher solution was added manually to each well of the Cas9-containing 384-well plates using an electronic pipette and was incubated at 37° C. for 2.5 h. Fluorescent signals were read with the microplate reader set to read Alexa-Fluor 647 fluorescence. Assay was performed similarly with SaCas9 and FnCas12a using the respective enzyme, gRNA, substrate, and quencher oligos. […]

SpCas9 [2] = target: T1, SpCas9; test: eGFP disruption assay, SpCas9, U2OS.eGFP.PEST cells; assay type: cell-based; details: for Z score Rep1 / Normalized Z rep1: replicate 1; for SpCas9 eGFP disruption Rep1: replicate 1, raw readout; for Z socre Rep2 / Normalized Z rep2: replicate 2; for SpCas9 eGFP disruption Rep2: replicate 2, raw readout
Text: In some embodiments, the secondary assay may be an EGFP disruption assay. In such assay, a quantitative human cell-based reporter assay that enables rapid quantitation of targeted nuclease activities is used to characterize off-target cleavage of Cas9-based RNA guided endonucleases. In this assay, the activities of nucleases targeted to a single integrated EGFP reporter gene can be quantified by assessing loss of fluorescence signal in human U2OS.EGFP cells caused by inactivating frameshift insertion/deletion (indel) mutations introduced by error prone non-homologous end-joining (NHEJ) repair of nuclease-induced double-stranded breaks (DSBs).
In one protocol, U2OS.EGFP cells harboring a single integrated copy of an EGFP-PEST fusion gene are cultured (see e.g., Reyon et al., Nat Biotech 30, 460-465 (2012), which is herein incorporated by reference in its entirety). For transfections, 200,000 cells are Nucleofected with gRNA expression plasmid and pJDS246 together with 30 ng of a Td-tomato-encoding plasmid using the SE Cell Line 4D-Nucleofector™ X Kit (Lonza) according to the manufacturer's protocol. Cells are analyzed 2 days post-transfection using a BD LSRII flow cytometer. Transfections for optimizing gRNA/Cas9 plasmid concentration are performed in triplicate and all other transfections are performed in duplicate. PCR amplification is used for sequence verification of endogenous human genomic sites. PCR reactions are performed using Phusion Hot Start II high-fidelity DNA polymerase (NEB). Loci are amplified using touchdown PCR (98° C., 10 s; 72-62° C., −1° C./cycle, 15s; 72° C., 30 s] 10 cycles, [98° C., 10s; 62° C., 15s; 72° C., 30 s] 25 cycles). Alternatively, PCR for other targets is performed with 35 cycles at a constant annealing temperature of 68° C. or 72° C., and 3% DMSO or IM betaine, if necessary. PCR products are analyzed on a QIAXCEL capillary electrophoresis system to verify both size and purity. Validated products are treated with ExoSap-IT (Affymetrix) and sequenced by the Sanger method (MGH DNA Sequencing Core) to verify each target site.
Primary and secondary screening. The primary screen assayed a selection of unique chemical scaffolds derived from commercially available compounds and known bioactive molecular libraries (Table 7). Auto-fluorescent compounds were removed by a counter screen. Overall, the CAA was used to assay 122,409 small molecules with over 2,500 unique chemical scaffolds (FIG. 64F, Table 7). Of these compounds, 547 were selected as hits (Z score >3 in both replicates) for testing in orthogonal cell-based secondary assays. Hits were tested in duplicate in an eGFP disruption assay, wherein U2OS.eGFP.PEST cells^33 transfected with SpCas9 plasmid and eGFP-targeting gRNA plasmid were incubated with 20 μM of the compounds. In this assay, any compound that inhibited SpCas9 would rescue the loss of eGFP fluorescence. Here, toxic and auto-fluorescent compounds with a high GFP signal in cells were removed as false positives. […] Next, Applicants tested the 15 compounds in a luminescence-based gain-of-signal HiBiT knock-in assay, which involves SpCas9-mediated homology-directed tagging of GAPDH with a short peptide that luminesces upon complementation with a subunit derived from nanoluciferase.^34 Complementarily, the eGFP-disruption assay is fluorescence-based and involves error-prone DNA repair. As a counter-screen to remove false positives caused by cell death (viability <80%), the cell viability was measured after incubation.
For SAR studies and dose-response studies, 300,000 U2OS.eGFP.PEST cells were nucleofected with 300 ng of SpCas9 plasmid (Addgene #43861) and 30 ng of eGFP-targeting gRNA plasmid (Addgene #47511)^33 using SE Cell Line 4D-Nucleofector X Kit (Lonza) following the pulse program of DN-100. For RNP-based genome editing, 10 pmol of SpCas9 (GenScript #Z03385) and 12 pmol of gRNA were mixed and incubated for 5 min. […]

[3] = Cas9 = lower control, Ctrl = upper control
[4] = normalized, lower control about 0, upper control about 1

T1 sequence (Q99ZW2 whole entry): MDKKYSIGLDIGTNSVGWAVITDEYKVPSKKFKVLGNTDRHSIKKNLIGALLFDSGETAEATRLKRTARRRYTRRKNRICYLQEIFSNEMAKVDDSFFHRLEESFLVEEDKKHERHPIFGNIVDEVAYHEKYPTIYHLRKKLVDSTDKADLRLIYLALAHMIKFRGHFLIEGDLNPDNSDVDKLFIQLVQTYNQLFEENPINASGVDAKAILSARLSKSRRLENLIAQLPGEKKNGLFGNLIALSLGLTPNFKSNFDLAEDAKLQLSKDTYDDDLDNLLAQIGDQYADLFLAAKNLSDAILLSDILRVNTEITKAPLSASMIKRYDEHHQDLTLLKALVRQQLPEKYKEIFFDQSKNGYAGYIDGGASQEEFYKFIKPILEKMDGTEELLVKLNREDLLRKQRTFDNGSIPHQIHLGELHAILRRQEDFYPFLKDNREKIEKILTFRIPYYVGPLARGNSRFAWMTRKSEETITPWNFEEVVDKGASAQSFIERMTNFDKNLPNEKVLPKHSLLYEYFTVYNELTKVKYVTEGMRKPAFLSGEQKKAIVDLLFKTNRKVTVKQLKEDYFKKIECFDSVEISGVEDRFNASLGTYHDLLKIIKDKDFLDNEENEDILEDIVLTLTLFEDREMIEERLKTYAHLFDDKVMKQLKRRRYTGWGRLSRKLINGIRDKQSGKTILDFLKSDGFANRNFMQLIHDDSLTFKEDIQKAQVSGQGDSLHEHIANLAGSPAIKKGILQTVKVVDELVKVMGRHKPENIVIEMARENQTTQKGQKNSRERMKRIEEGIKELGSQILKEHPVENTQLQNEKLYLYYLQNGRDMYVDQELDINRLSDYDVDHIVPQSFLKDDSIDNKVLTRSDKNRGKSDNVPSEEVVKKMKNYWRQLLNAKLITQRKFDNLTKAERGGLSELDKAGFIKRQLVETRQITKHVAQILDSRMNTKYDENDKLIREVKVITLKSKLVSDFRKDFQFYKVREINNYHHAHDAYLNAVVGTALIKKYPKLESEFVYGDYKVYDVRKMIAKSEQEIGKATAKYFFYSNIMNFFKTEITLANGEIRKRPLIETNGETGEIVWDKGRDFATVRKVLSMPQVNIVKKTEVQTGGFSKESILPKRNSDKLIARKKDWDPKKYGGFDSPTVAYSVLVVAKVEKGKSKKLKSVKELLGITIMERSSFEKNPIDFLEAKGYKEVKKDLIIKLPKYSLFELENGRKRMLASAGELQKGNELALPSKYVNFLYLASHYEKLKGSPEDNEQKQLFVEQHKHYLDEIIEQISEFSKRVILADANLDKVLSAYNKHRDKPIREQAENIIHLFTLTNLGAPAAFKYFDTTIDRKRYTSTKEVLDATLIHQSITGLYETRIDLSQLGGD

Structure (SMILES) | avg z score primary (SpCas9 [1]) | Average Normalized Z score (SpCas9 [1]; average of replicates) | Normalized Z score 1 (SpCas9 [1]) | Normalized Z score 2 (SpCas9 [1]) | Z score Rep1 (SpCas9 [2]) | SpCas9 eGFP disruption Rep1 (SpCas9 [2]; [3]) | Normalized Z rep1 (SpCas9 [2]; [4]) | Z socre Rep2 (SpCas9 [2]) | SpCas9 eGFP disruption Rep2 (SpCas9 [2]; [3]) | Normalized Z rep2 (SpCas9 [2]; [4]) | Normalized Z rep1 (SpCas9 [2]) | SpCas9 eGFP disruption Rep1 (SpCas9 [2]) | Normalized Z rep2 (SpCas9 [2]) | SpCas9 eGFP disruption Rep2 (SpCas9 [2]) | Average Normalized Z score (SpCas9 [1])
CCn1c(CCC(=O)O)nc2cc(S(N)(=O)=O)ccc21 [Compound T5380152] | 4.58 | 0.13 | 0.14 | 0.11 | −1.27 | 54.565 | −0.09 | 4.01 | 62.745 | 0.19 |  |  |  |  | 
COc1ccc(-c2ccc3ncc4c(c3c2)n(-c2ccc(N3CCNCC3)c(C(F)(F)F)c2)c(=O)n4C)cn1.O=C(O)C=CC(=O)O [Compound S2749] | 6.76 | 0.34 | 0.35 | 0.34 | −26.02 |  |  | −38.53 |  |  | −3.98 | 0 | −4.01 | 0 | 
COc1ccc(C2CNC(=O)C2)cc1OC1CCCC1 (stereo not shown) [Compound S2127] | 3.63 | 0.17 | 0.17 | 0.17 | −0.74 |  |  | −2.66 |  |  | −0.11 | 73.9 | −0.28 | 71.027 | 
Cc1ccc(-c2nc(CN3CCCC(C(=O)Nc4cc(C)ccc4O)C3)no2)cc1 (stereo not shown) [Compound J065-2258] | 5.05 |  | 0.10 | 0.14 | −1.25 |  |  | −1.43 |  |  | −0.12 | 73.517 | −0.06 | 74.702 | 0.12
Cl.Cl.Fc1cc(-c2cccc3ncc(-c4cnn(C5CCNCC5)c4)nc23)cc(F)c1CN1CCOCC1 [Compound S2686] | 7.03 | 0.36 | 0.37 | 0.35 | −4.74 |  |  | −5.44 |  |  | −0.73 | 62.196 | −0.57 | 65.516 | 
O=C(Nc1nc(-c2ccccc2)c(C(=O)c2ccccc2)s1)c1ccc2c(c1)OCCO2 [Compound G786-0335] | 4.14 |  | 0.04 | 0.04 | −0.79 |  |  | 2.13 |  |  | −0.08 | 74.347 | 0.09 | 77.667 | 0.04
O=C(NCc1ccc2c(c1)OCO2)c1cccc(Oc2cc(-c3ccccc3)ncn2)c1 [Compound L663-1076] | 7.72 |  | 0.38 | 0.41 | −0.69 |  |  | −0.12 |  |  | −0.11 | 74.045 | −0.01 | 76.06 | 0.40
COc1ccc(-c2cc(N3CCN(C(=O)c4ccc(C(C)(C)C)cc4)CC3)ncn2)cc1 [Compound M130-0012] | 20.61 | 0.28 | 0.28 | 0.28 | −0.67 |  |  | −0.27 |  |  | −0.10 | 74.104 | −0.03 | 75.755 | 
Cn1nc(-c2ccccc2F)c2cc(C(=O)Oc3ccc4cnccc4c3)sc21 [Compound G784-0099] | 7.48 |  | 0.06 | 0.09 | −3.62 |  |  | 0.21 |  |  | −0.35 | 69.21 | 0.01 | 76.066 | 0.07
CC(C)CNC(=O)c1ccc(Oc2ccnc(-c3ccc(F)cc3)n2)cc1 [Compound L662-0597] | 7.15 |  | 0.36 | 0.37 | 0.02 |  |  | −1.39 |  |  | 0.00 | 76.108 | −0.15 | 73.535 | 0.37
Cc1ccc(C(C)NC(=O)c2cccc(Oc3cc(-c4ccccc4)ncn3)c2)cc1 (stereo not shown) [Compound L663-1062] | 5.51 |  | 0.28 | 0.29 | −0.64 |  |  | −0.70 |  |  | −0.10 | 74.182 | −0.07 | 74.913 | 0.28
CCC(CC)NC(=O)c1ccc2ncsc2c1 [Compound T5324509] | 7.80 | 0.10 | 0.12 | 0.09 |  |  |  |  |  |  |  |  |  |  | 
O=C(COC(=O)c1cc(O)c(O)c(O)c1)NC1CCCc2ccccc21 (stereo not shown) [Compound T0515-9025] | 4.00 | 0.25 | 0.26 | 0.23 |  |  |  |  |  |  |  |  |  |  | 
